Results on 3 compounds are retold here after US12275731B2, “Azaindole inhibitors of wild-type and mutant forms of LRRK2” (DANA-FARBER CANCER INSTITUTE, INC., priority 2018, dated 2025).

Common to all, as to experiment: KinomeScan profiling
What all share (format): binding

One experiment addresses T1, AURKB (Homo sapiens, UniProt Q96GD4).
T1 construct: purchased KinomeScan®
The note with it: read-out: % control. In outline:
(§1)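 Luminescence (RLU) was converted to percent of control, with DMSO set as 100% and a reference compound as 0%. Test compounds were run at 1 μM against 468 kinases. Kinases showing below 35% of control were scored as bound.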

In the next experiment the target is WEE1 (Homo sapiens, UniProt P30291). The note with it: WEE1, 1 μM; read-out: % control. A digest of the protocol:
as §1

In another experiment the target is HCK (Homo sapiens, UniProt P08631). The note with it: read-out: % control. In outline: as §1
Experiment [1] concerns the target T2, RSK4(Kin.Dom.2-C-terminal) (Homo sapiens, UniProt Q9UK32).
T2 construct: RSK4(Kin.Dom.2-C-terminal)
T2 sequence (Q9UK32 426-683 limits assumed): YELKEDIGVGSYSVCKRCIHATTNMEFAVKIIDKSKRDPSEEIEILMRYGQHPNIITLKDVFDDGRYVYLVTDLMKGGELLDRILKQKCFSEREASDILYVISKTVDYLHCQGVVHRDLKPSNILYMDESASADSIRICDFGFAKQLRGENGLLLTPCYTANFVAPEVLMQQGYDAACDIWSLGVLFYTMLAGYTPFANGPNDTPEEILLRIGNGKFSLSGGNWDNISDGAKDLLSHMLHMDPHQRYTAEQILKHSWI
The following applies: read-out: % control. A digest of the protocol: as §1

A further experiment deals with TLK2 (Homo sapiens, UniProt Q86UE8). The following applies: TLK2, 1 μM; read-out: % control. In outline:
as §1

In another experiment the target is T3, MAP3K2 (Homo sapiens, UniProt Q9Y2U5).
T3 sequence (Q9Y2U5 1-619): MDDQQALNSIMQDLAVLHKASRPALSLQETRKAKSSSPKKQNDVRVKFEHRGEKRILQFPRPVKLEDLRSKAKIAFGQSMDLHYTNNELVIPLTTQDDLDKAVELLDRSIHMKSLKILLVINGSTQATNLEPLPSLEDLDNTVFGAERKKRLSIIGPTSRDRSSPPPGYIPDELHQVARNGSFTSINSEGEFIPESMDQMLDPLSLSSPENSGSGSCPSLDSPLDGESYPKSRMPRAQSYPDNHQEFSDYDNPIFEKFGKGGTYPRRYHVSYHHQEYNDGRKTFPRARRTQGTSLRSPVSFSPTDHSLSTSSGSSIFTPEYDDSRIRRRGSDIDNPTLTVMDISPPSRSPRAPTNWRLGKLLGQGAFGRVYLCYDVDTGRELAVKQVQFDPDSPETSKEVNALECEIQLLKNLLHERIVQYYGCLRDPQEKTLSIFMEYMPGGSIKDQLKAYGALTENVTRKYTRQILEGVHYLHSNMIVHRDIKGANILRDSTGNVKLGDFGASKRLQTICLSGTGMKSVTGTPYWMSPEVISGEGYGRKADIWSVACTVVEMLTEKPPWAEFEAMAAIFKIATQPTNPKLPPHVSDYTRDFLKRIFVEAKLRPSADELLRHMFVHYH
The following applies: MAP3K2, 1 μM; read-out: % control. In outline: as §1

Experiment [2] has as its target T4, ABL1(H396P)-phosphorylated (Homo sapiens, UniProt P00519, H396P).
T4 construct: purchased KinomeScan®
The following applies: read-out: % control. A digest of the protocol: as §1

A further experiment concerns the target PFCDPK1(P. falciparum) (Plasmodium falciparum, UniProt P62344). The following applies: read-out: % control. A digest of the protocol:
as §1

A further experiment concerns the target CDK7 (Homo sapiens, UniProt P50613). The note with it: CDK7, 1 μM; read-out: % control. In outline:
as §1

Another experiment addresses MEK1 (Homo sapiens, UniProt Q02750). The note with it: MEK1, 1 μM; read-out: % control. A digest of the protocol:
as §1

Another experiment concerns the target FGFR1 (Homo sapiens, UniProt P11362). The note with it: FGFR1, 1 μM; read-out: % control. In outline: as §1
The target in another experiment is T5, TBK1 (Homo sapiens, UniProt Q9UHD2).
T5 sequence (Q9UHD2 1-729): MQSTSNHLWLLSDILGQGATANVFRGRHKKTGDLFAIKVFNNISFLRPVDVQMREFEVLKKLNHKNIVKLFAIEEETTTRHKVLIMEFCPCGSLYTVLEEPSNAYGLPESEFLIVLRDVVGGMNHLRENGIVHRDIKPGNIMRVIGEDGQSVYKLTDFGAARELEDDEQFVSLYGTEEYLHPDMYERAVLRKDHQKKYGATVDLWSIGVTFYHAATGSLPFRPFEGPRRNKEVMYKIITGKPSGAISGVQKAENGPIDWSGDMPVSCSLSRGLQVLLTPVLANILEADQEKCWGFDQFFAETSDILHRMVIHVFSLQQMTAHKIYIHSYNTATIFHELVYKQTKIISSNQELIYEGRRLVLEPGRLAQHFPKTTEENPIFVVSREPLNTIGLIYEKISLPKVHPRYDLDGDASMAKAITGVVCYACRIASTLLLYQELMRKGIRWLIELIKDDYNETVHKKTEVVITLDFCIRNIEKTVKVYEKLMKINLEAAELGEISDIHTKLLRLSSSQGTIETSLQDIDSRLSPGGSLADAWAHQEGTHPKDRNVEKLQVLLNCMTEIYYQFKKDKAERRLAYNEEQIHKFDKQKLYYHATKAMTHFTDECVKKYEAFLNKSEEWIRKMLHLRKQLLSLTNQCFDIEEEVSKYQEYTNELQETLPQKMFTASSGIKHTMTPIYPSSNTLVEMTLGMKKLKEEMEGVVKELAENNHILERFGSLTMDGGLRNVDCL
The note with it: TBK1, 1 μM; read-out: % control. In outline:
as §1

The target in another experiment is T6, BMPR1A (Homo sapiens, UniProt P36894).
T6 construct: purchased KinomeScan®
The note with it: read-out: % control. A digest of the protocol:
as §1

The next experiment has as its target CLK1 (Homo sapiens, UniProt P49759). The note with it: CLK1, 1 μM; read-out: % control. In outline:
as §1

In another experiment the target is TRKA (Homo sapiens, UniProt P04629). The note with it: read-out: % control. A digest of the protocol: as §1
Another experiment concerns the target T7, INSR (Homo sapiens, UniProt P06213).
T7 construct: purchased KinomeScan®
The following applies: read-out: % control. A digest of the protocol: as §1

SMILES strings stand for the structures.

T7 sequence (P06213 28-1382): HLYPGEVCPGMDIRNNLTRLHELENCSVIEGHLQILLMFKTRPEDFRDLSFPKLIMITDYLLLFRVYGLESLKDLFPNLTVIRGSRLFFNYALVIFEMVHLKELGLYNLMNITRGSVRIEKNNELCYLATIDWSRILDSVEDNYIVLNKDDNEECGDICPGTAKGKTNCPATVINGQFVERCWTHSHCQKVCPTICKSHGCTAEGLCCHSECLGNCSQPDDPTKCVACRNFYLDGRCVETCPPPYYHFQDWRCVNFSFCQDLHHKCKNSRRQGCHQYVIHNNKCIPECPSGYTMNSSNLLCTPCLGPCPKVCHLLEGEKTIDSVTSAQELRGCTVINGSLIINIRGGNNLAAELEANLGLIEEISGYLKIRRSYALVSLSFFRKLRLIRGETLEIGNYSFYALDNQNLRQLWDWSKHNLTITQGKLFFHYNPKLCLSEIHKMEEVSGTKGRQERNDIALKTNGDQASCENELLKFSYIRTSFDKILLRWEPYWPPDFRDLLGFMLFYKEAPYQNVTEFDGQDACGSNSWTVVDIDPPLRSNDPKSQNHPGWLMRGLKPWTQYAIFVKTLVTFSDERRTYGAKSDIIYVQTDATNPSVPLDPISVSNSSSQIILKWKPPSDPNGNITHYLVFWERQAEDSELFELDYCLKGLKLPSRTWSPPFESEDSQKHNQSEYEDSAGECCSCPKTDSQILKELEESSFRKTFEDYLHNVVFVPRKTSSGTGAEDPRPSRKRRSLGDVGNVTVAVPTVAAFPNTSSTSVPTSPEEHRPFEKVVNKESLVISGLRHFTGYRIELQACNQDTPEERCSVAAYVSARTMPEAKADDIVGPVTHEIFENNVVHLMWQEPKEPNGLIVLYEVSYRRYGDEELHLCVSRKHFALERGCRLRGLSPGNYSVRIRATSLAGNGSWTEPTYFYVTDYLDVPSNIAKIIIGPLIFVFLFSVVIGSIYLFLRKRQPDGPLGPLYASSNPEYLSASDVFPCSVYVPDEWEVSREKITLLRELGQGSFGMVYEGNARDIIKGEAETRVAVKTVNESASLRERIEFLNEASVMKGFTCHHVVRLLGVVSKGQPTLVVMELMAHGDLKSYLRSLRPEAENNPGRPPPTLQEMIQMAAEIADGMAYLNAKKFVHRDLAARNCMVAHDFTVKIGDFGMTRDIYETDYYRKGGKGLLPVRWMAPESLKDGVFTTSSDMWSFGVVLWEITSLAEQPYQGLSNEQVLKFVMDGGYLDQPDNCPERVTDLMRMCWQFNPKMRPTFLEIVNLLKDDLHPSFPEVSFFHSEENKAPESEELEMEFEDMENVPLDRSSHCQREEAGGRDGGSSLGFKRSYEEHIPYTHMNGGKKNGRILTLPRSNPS
T6 sequence (P36894 24-532): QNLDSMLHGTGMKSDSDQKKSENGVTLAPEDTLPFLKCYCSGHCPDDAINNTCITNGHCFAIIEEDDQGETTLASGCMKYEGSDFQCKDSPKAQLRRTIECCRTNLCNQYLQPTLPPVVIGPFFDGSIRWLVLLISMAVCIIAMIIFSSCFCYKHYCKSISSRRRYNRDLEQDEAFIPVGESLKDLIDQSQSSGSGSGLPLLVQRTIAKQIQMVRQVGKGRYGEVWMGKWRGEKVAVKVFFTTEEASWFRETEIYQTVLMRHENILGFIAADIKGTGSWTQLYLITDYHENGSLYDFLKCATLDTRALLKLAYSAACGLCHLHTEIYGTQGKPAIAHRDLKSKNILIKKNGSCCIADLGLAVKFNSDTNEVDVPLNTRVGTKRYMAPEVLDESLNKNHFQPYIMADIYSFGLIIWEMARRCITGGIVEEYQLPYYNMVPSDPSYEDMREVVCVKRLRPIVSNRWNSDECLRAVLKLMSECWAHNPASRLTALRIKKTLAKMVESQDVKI
Sequence of CLK1 (P49759 whole entry): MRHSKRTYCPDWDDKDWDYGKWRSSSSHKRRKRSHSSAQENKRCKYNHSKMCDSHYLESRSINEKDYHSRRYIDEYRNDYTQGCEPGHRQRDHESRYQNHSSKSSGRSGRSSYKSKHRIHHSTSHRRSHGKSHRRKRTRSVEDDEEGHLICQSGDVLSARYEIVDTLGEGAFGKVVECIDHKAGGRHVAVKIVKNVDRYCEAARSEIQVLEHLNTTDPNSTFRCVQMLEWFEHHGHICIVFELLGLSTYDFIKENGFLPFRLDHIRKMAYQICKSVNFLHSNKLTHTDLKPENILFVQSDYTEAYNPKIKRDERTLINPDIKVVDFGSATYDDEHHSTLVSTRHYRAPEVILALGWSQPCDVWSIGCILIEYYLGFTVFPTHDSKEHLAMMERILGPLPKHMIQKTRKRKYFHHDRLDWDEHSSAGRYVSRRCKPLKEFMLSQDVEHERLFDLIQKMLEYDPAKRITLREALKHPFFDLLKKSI
T1 sequence (Q96GD4 whole entry): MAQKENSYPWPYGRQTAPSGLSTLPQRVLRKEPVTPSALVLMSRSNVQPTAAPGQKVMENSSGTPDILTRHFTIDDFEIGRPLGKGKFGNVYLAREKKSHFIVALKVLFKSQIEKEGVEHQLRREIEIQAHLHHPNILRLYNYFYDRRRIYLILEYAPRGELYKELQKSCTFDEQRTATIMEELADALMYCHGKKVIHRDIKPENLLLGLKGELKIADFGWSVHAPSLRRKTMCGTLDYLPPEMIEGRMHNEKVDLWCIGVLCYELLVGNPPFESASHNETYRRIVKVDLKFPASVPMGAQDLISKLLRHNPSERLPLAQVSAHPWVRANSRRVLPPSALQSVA
Sequence of FGFR1 (P11362 22-822): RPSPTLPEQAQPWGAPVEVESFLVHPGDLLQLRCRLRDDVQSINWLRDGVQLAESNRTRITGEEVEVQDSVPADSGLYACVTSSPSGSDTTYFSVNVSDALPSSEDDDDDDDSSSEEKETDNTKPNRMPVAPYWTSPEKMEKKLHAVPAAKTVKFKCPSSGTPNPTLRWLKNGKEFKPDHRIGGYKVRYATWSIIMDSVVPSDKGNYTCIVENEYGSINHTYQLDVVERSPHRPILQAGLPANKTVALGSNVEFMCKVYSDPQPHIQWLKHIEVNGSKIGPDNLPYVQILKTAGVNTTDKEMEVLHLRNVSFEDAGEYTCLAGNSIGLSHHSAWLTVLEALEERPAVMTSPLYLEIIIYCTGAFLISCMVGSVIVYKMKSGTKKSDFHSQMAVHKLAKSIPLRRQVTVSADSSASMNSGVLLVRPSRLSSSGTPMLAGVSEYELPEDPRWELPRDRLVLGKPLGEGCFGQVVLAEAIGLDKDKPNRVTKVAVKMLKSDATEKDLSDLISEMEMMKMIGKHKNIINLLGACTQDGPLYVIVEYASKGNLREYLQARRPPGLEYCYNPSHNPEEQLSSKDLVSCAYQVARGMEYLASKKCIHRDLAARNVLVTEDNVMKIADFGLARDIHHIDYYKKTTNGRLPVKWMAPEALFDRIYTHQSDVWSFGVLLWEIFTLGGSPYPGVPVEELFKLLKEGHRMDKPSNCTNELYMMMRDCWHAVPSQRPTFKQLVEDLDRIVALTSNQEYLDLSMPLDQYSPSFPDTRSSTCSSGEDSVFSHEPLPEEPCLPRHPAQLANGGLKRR
Sequence of PFCDPK1(P. falciparum) (P62344 whole entry): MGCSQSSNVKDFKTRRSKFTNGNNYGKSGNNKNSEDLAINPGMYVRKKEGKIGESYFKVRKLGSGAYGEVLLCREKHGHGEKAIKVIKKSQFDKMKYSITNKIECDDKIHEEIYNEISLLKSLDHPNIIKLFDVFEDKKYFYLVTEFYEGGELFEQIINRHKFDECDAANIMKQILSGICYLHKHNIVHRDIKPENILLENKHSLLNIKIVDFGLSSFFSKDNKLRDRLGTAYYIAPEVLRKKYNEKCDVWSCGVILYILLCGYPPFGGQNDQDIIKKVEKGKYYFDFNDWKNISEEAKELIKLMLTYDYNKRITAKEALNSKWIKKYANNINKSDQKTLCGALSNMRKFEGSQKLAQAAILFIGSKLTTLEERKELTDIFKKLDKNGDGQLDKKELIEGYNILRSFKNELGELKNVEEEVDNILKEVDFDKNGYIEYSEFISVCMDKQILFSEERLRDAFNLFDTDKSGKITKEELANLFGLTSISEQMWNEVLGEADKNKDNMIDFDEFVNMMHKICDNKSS
Sequence of MEK1 (Q02750 whole entry): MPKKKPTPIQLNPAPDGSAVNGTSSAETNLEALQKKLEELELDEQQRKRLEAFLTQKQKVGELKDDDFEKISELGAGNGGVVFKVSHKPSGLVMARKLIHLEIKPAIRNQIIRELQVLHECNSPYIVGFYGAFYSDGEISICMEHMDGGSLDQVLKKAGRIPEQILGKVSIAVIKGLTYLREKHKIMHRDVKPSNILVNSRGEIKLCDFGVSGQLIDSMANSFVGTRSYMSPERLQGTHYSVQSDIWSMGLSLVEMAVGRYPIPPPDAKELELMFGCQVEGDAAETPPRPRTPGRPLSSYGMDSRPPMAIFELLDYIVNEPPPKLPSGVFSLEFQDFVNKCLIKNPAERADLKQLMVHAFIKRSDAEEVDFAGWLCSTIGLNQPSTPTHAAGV
Sequence of HCK (P08631 whole entry): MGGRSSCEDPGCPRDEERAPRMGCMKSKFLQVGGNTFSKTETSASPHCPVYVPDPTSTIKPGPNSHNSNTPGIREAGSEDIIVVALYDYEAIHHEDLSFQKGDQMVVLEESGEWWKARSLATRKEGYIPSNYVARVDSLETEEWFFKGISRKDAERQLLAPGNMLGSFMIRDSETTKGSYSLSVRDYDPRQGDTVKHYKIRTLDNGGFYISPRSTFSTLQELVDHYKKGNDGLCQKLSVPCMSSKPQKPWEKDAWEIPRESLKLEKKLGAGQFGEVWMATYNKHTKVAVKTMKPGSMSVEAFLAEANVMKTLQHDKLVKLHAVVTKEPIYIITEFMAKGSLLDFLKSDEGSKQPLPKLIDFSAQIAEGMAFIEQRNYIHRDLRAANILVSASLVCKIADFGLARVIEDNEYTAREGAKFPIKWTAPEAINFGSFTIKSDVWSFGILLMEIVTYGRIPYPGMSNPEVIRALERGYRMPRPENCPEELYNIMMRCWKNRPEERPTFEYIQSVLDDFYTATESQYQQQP

For `CNc1c(-c2ccc(C(=O)N3CCC(N4CCOCC4)CC3)cc2)cnc2[nH]cc(Cl)c12` [Compound 96, (4-(3-chloro-4-(methylamino)-1H-pyrrolo[2,3-b]pyridin-5-yl)phenyl)(4-morpholinopiperidin-1-yl)methanone], the remaining binding at 1 µM on AURKB amounted to 53%; on WEE1, 88%; on HCK, 100%; in [1] it was 91%; at TLK2 it was 100%; on MAP3K2, 29%. For the same compound, the remaining binding at 1 µM was determined as 100% in experiment [2]; 94% at PFCDPK1(P. falciparum); 90% on CDK7; 12% at MEK1; 85% on FGFR1; 91% at TBK1. The remaining binding at 1 µM on BMPR1A is 66%; on CLK1, 33%; at TRKA, 11%; on INSR it was 71%.

In the case of `O=C(c1ccc(-c2cnc3[nH]cc(Cl)c3c2NC2CCCC2)cc1)N1CCC(N2CCOCC2)CC1` [Compound 101, (4-(3-chloro-4-(cyclopentylamino)-1H-pyrrolo[2,3-b]pyridin-5-yl)phenyl)(4-morpholinopiperidin-1-yl)methanone], the remaining binding at 1 µM was found to be 100% at AURKB; 100% at WEE1; 96% on HCK; 88% in [1]; 100% on TLK2; 35% on MAP3K2. In addition, the remaining binding at 1 µM in experiment [2] came out at 100%; on PFCDPK1(P. falciparum), 95%; on CDK7, 93%; on MEK1, 94%; at FGFR1, 77%; on TBK1, 90%. For the same compound, the remaining binding at 1 µM on BMPR1A amounted to 87%; at CLK1, 59%; on TRKA, 49%; on INSR, 68%.

Consider `CNc1c(-c2cnn([C@H]3CCN(C(C)=O)C[C@@H]3F)c2)cnc2[nH]cc(Cl)c12` [Compound 77, 1-((3S,4S)-4-(4-(3-chloro-4-(methylamino)-1H-pyrrolo[2,3-b]pyridin-5-yl)-1H-pyrazol-1-yl)-3-fluoropiperidin-1-yl)ethan-1-one], for which the remaining binding at 1 µM turned out to be 24% at AURKB; 97% at WEE1; 100% at HCK; 98% in experiment [1]; 99% on TLK2; 25% on MAP3K2. Further, the remaining binding at 1 µM in [2] came out at 81%; on PFCDPK1(P. falciparum), 86%; at CDK7, 94%; at MEK1, 29%; at FGFR1, 87%; on TBK1 it was 57%. Also, the remaining binding at 1 µM came out at 93% on BMPR1A, 84% on CLK1, 0.65% at TRKA and 53% at INSR.
